Patent publication US8822530B2, “Sulfur derivatives as chemokine receptor modulators” (Allergan, Inc., priority 2010, dated 2014)

Molecular target: T1, CCR2 receptor (Homo sapiens, UniProt P41597)
T1 construct: expressed in transfected cells
Experiment: Calcium activity assay on FLIPR Tetra in HEK-Gqi5 cells stably expressing CCR2
Assay type: cell-based
Protocol: HEK-Gqi5 cells stably expressing CCR2 were cultured in DMEM high glucose, 10% FBS, 1% PSA, 400 μg/ml geneticin and 50 μg/ml hygromycin. Appropriate positive control chemokines (MCP-1, MIP1A or RANTES) was used as the positive control agonist for screening compound-induced calcium activity assayed on the FLIPR^Tetra. The drug plates were prepared in 384-well microplates using the EP3 and the MultiPROBE robotic liquid handling systems. Compounds were synthesized and tested for CCR2 activity.

T1 sequence (P41597 whole entry): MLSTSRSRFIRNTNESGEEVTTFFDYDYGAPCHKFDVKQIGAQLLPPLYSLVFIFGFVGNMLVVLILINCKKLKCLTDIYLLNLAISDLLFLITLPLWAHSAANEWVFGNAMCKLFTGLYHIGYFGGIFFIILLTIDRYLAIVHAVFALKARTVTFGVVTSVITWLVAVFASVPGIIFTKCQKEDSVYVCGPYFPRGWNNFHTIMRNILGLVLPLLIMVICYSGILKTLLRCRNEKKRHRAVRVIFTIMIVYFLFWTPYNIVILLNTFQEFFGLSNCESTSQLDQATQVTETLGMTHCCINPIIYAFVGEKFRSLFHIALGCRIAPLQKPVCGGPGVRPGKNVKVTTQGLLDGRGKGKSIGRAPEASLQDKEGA

Going from `COC(=O)c1ccccc1CSc1ccc(Cl)cc1NS(=O)(=O)c1ccc(Cl)c(C(F)(F)F)c1` [methyl 2-({[4-chloro-2-({[4-chloro-3-(trifluoromethyl)phenyl]sulfonyl}amino)phenyl]sulfanyl}methyl)benzoate] to `COC(=O)c1ccccc1C[S+]([O-])c1ccc(Cl)cc1NS(=O)(=O)c1ccc(Cl)c(C(F)(F)F)c1` (centres unmarked) [methyl 2-({[4-chloro-2-({[4-chloro-3-(trifluoromethyl)phenyl]sulfonyl}amino)phenyl]sulfinyl}methyl)benzoate], the “CCR2 % ANTAGONISM” value rises from 88% to 101%.

Going from `COC(=O)c1ccccc1CS(=O)(=O)c1ccc(Cl)cc1NS(=O)(=O)c1ccc(Cl)c(C(F)(F)F)c1` [methyl 2-({[4-chloro-2-({[4-chloro-3-(trifluoromethyl)phenyl]sulfonyl}amino)phenyl]sulfonyl}methyl)benzoate] to `COC(=O)c1cccc(CS(=O)(=O)c2ccc(Cl)cc2NS(=O)(=O)c2ccc(Cl)c(C(F)(F)F)c2)c1` [methyl 3-({[4-chloro-2-({[4-chloro-3-(trifluoromethyl)phenyl]sulfonyl}amino)phenyl]sulfonyl}methyl)benzoate], the “CCR2 % ANTAGONISM” value falls from 82% to 55%.

First: COC(=O)c1ccccc1CSc1ccc(F)cc1NS(=O)(=O)c1cc2ccccc2o1 [methyl 2-[({2-[(1-benzofuran-2-ylsulfonyl)amino]-4-fluorophenyl}sulfanyl)methyl]benzoate]
Second: COC(=O)c1ccccc1C[S+]([O-])c1ccc(F)cc1NS(=O)(=O)c1cc2ccccc2o1 (centres unmarked) [methyl 2-[({2-[(1-benzofuran-2-ylsulfonyl)amino]-4-fluorophenyl}sulfinyl)methyl]benzoate]
The “CCR2 % ANTAGONISM” value of the first is higher: 93% for the first, 91% for the second.

Going from `COC(=O)c1ccccc1CS(=O)(=O)c1ccc(F)cc1NS(=O)(=O)c1cc2ccccc2o1` [methyl 2-[({2-[(1-benzofuran-2-ylsulfonyl)amino]-4-fluorophenyl}sulfonyl)methyl]benzoate] to `COC(=O)CCS(=O)(=O)c1ccc(Cl)cc1NS(=O)(=O)c1cc2ccccc2o1` [methyl 3-({2-[(1-benzofuran-2-ylsulfonyl)amino]-4-chlorophenyl}sulfonyl)propanoate], the “CCR2 % ANTAGONISM” value rises from 90% to 96%.

First: COC(=O)CCSc1ccc(Cl)cc1NS(=O)(=O)c1cc2ccccc2o1 [methyl 3-({2-[(1-benzofuran-2-ylsulfonyl)amino]-4-chlorophenyl}sulfanyl)propanoate]
Second: COC(=O)CC[S+]([O-])c1ccc(Cl)cc1NS(=O)(=O)c1cc2ccccc2o1 (centres unmarked) [methyl 3-({2-[(1-benzofuran-2-ylsulfonyl)amino]-4-chlorophenyl}sulfinyl)propanoate]
The “CCR2 % ANTAGONISM” value of the first is lower: 91% for the first, 99% for the second.

Going from `COC(=O)c1cccc(CSc2ccc(Cl)cc2NS(=O)(=O)c2ccc(Cl)c(C(F)(F)F)c2)c1` [methyl 3-({[4-chloro-2-({[4-chloro-3-(trifluoromethyl)phenyl]sulfonyl}amino)phenyl]sulfanyl}methyl)benzoate] to `COC(=O)c1cccc(C[S+]([O-])c2ccc(Cl)cc2NS(=O)(=O)c2ccc(Cl)c(C(F)(F)F)c2)c1` (centres unmarked) [methyl 3-({[4-chloro-2-({[4-chloro-3-(trifluoromethyl)phenyl]sulfonyl}amino)phenyl]sulfinyl}methyl)benzoate], the “CCR2 % ANTAGONISM” value rises from 57% to 93%.

Going from `COC(=O)CCSc1ccc(Cl)cc1NS(=O)(=O)c1ccc(Cl)cc1F` [methyl 3-[(4-chloro-2-{[(4-chloro-2-fluorophenyl)sulfonyl]amino}phenyl)sulfanyl]propanoate] to `COC(=O)CC[S+]([O-])c1ccc(Cl)cc1NS(=O)(=O)c1ccc(Cl)cc1F` (centres unmarked) [methyl 3-[(4-chloro-2-{[(4-chloro-2-fluorophenyl)sulfonyl]amino}phenyl)sulfinyl]propanoate], the “CCR2 % ANTAGONISM” value rises from 79% to 93%.

Compared with `COC(=O)CCS(=O)(=O)c1ccc(Cl)cc1NS(=O)(=O)c1ccc(Cl)cc1F` [methyl 3-[(4-chloro-2-{[(4-chloro-2-fluorophenyl)sulfonyl]amino}phenyl)sulfonyl]propanoate], `CC(C)(C)OC(=O)CNC(=O)c1ccc(CS(=O)(=O)c2ccc(Cl)cc2NS(=O)(=O)c2ccc(Cl)c(C(F)(F)F)c2)cc1` [tert-butyl ({[4-({[4-chloro-2-({[4-chloro-3-(trifluoromethyl)phenyl]sulfonyl}amino)phenyl]sulfonyl}methyl)phenyl]carbonyl}amino)acetate] is lower in “CCR2 % ANTAGONISM” value: 82% for the first, 77% for the second.

First: CC(C)(C)OC(=O)CNC(=O)c1ccc(CSc2ccc(Cl)cc2NS(=O)(=O)c2ccc(Cl)c(C(F)(F)F)c2)cc1 [tert-butyl ({[4-({[4-chloro-2-({[4-chloro-3-(trifluoromethyl)phenyl]sulfonyl}amino)phenyl]sulfanyl}methyl)phenyl]carbonyl}amino)acetate]
Second: CC(C)(C)OC(=O)CNC(=O)c1ccc(C[S+]([O-])c2ccc(Cl)cc2NS(=O)(=O)c2ccc(Cl)c(C(F)(F)F)c2)cc1 (centres unmarked) [tert-butyl ({[4-({[4-chloro-2-({[4-chloro-3-(trifluoromethyl)phenyl]sulfonyl}amino)phenyl]sulfinyl}methyl)phenyl]carbonyl}amino)acetate]
The “CCR2 % ANTAGONISM” value of the first is lower: 43% for the first, 93% for the second.

Going from `COC(=O)c1ccccc1CSc1ccc(Cl)cc1NS(=O)(=O)c1ccc(Cl)c(C(F)(F)F)c1` [methyl 2-({[4-chloro-2-({[4-chloro-3-(trifluoromethyl)phenyl]sulfonyl}amino)phenyl]sulfanyl}methyl)benzoate] to `COC(=O)c1ccccc1C[S+]([O-])c1ccc(Cl)cc1NS(=O)(=O)c1ccc(Cl)c(C(F)(F)F)c1` (centres unmarked) [methyl 2-({[4-chloro-2-({[4-chloro-3-(trifluoromethyl)phenyl]sulfonyl}amino)phenyl]sulfinyl}methyl)benzoate], the IC50 falls from 2380 nM to 274 nM (8.7-fold). The second is the more potent here.

Going from `COC(=O)c1ccccc1CS(=O)(=O)c1ccc(Cl)cc1NS(=O)(=O)c1ccc(Cl)c(C(F)(F)F)c1` [methyl 2-({[4-chloro-2-({[4-chloro-3-(trifluoromethyl)phenyl]sulfonyl}amino)phenyl]sulfonyl}methyl)benzoate] to `COC(=O)c1cccc(CS(=O)(=O)c2ccc(Cl)cc2NS(=O)(=O)c2ccc(Cl)c(C(F)(F)F)c2)c1` [methyl 3-({[4-chloro-2-({[4-chloro-3-(trifluoromethyl)phenyl]sulfonyl}amino)phenyl]sulfonyl}methyl)benzoate], the IC50 rises from 515 nM to 2970 nM (5.8-fold). The first is the more potent here.

Going from `COC(=O)c1ccccc1CSc1ccc(F)cc1NS(=O)(=O)c1cc2ccccc2o1` [methyl 2-[({2-[(1-benzofuran-2-ylsulfonyl)amino]-4-fluorophenyl}sulfanyl)methyl]benzoate] to `COC(=O)c1ccccc1C[S+]([O-])c1ccc(F)cc1NS(=O)(=O)c1cc2ccccc2o1` (centres unmarked) [methyl 2-[({2-[(1-benzofuran-2-ylsulfonyl)amino]-4-fluorophenyl}sulfinyl)methyl]benzoate], the IC50 falls from 272 nM to 140 nM (1.9-fold).

First: COC(=O)c1ccccc1CS(=O)(=O)c1ccc(F)cc1NS(=O)(=O)c1cc2ccccc2o1 [methyl 2-[({2-[(1-benzofuran-2-ylsulfonyl)amino]-4-fluorophenyl}sulfonyl)methyl]benzoate]
Second: COC(=O)CCS(=O)(=O)c1ccc(Cl)cc1NS(=O)(=O)c1cc2ccccc2o1 [methyl 3-({2-[(1-benzofuran-2-ylsulfonyl)amino]-4-chlorophenyl}sulfonyl)propanoate]
The IC50 of the first is 5.5-fold lower: 41 nM for the first, 225 nM for the second.

Going from `COC(=O)CCSc1ccc(Cl)cc1NS(=O)(=O)c1cc2ccccc2o1` [methyl 3-({2-[(1-benzofuran-2-ylsulfonyl)amino]-4-chlorophenyl}sulfanyl)propanoate] to `COC(=O)CC[S+]([O-])c1ccc(Cl)cc1NS(=O)(=O)c1cc2ccccc2o1` (centres unmarked) [methyl 3-({2-[(1-benzofuran-2-ylsulfonyl)amino]-4-chlorophenyl}sulfinyl)propanoate], the IC50 falls from 864 nM to 217 nM (4-fold). The second is the more potent here.

Compared with `COC(=O)c1cccc(CSc2ccc(Cl)cc2NS(=O)(=O)c2ccc(Cl)c(C(F)(F)F)c2)c1` [methyl 3-({[4-chloro-2-({[4-chloro-3-(trifluoromethyl)phenyl]sulfonyl}amino)phenyl]sulfanyl}methyl)benzoate], `COC(=O)c1cccc(C[S+]([O-])c2ccc(Cl)cc2NS(=O)(=O)c2ccc(Cl)c(C(F)(F)F)c2)c1` (centres unmarked) [methyl 3-({[4-chloro-2-({[4-chloro-3-(trifluoromethyl)phenyl]sulfonyl}amino)phenyl]sulfinyl}methyl)benzoate] is 2.3-fold higher in IC50: 1360 nM for the first, 3110 nM for the second.

First: COC(=O)CCSc1ccc(Cl)cc1NS(=O)(=O)c1ccc(Cl)cc1F [methyl 3-[(4-chloro-2-{[(4-chloro-2-fluorophenyl)sulfonyl]amino}phenyl)sulfanyl]propanoate]
Second: COC(=O)CC[S+]([O-])c1ccc(Cl)cc1NS(=O)(=O)c1ccc(Cl)cc1F (centres unmarked) [methyl 3-[(4-chloro-2-{[(4-chloro-2-fluorophenyl)sulfonyl]amino}phenyl)sulfinyl]propanoate]
The IC50 of the first is 10-fold higher: 995 nM for the first, 98 nM for the second. The second is the more potent here.

Compared with `COC(=O)CCS(=O)(=O)c1ccc(Cl)cc1NS(=O)(=O)c1ccc(Cl)cc1F` [methyl 3-[(4-chloro-2-{[(4-chloro-2-fluorophenyl)sulfonyl]amino}phenyl)sulfonyl]propanoate], `CC(C)(C)OC(=O)CNC(=O)c1ccc(CS(=O)(=O)c2ccc(Cl)cc2NS(=O)(=O)c2ccc(Cl)c(C(F)(F)F)c2)cc1` [tert-butyl ({[4-({[4-chloro-2-({[4-chloro-3-(trifluoromethyl)phenyl]sulfonyl}amino)phenyl]sulfonyl}methyl)phenyl]carbonyl}amino)acetate] is 13-fold higher in IC50: 212 nM for the first, 2660 nM for the second. The first is the more potent here.

With `CC(C)(C)OC(=O)CNC(=O)c1ccc(CSc2ccc(Cl)cc2NS(=O)(=O)c2ccc(Cl)c(C(F)(F)F)c2)cc1` [tert-butyl ({[4-({[4-chloro-2-({[4-chloro-3-(trifluoromethyl)phenyl]sulfonyl}amino)phenyl]sulfanyl}methyl)phenyl]carbonyl}amino)acetate] the IC50 was 657 nM.
